Data from ChEMBL document CHEMBL1240344, “Phage-encoded combinatorial chemical libraries based on bicyclic peptides” (Nat Chem Biol, 2009).
Calls of active or inactive are those of the source. The calls are words filed in the database; no cut-off is given here. Starred links: 1 amine or outer side, 2 acyl side, 3 side chain; linkers in the order of their positions; H or OH if unused. Positions of bridges follow the written chain, without caps; N, C: chain ends. Residues, ends and D or L forms follow the SMILES beside them. TBMB = c1c(C[*:1])cc(C[*:3])cc1C[*:2]

Legend:
Plasma kallikrein = Plasma kallikrein (Homo sapiens, UniProt P03952); assay: Inhibition of human plasma kallikrein using Z-Phe-Arg-AMC substrate after 30 mins by spectrophotometric assay
[1] = target: Plasma kallikrein (Mus musculus) (UniProt P26262); assay: Inhibition of mouse plasma kallikrein at 10 uM using Z-Phe-Arg-AMC substrate after 30 mins by spectrophotometric assay; type: cell-free
[2] = target: Prothrombin (Homo sapiens) (UniProt P00734); assay: Inhibition of human thrombin at 10 uM using Boc-Phe-Ser-Arg-AMC substrate after 30 mins by spectrophotometric assay
[3] = target: Coagulation factor XI (Homo sapiens) (UniProt P03951); assay: Inhibition of human factor 11a at 10 uM using Z-Phe-Arg-AMC substrate after 30 mins by spectrophotometric assay
Sequence of Coagulation factor XI (Homo sapiens) (P03951 19-387 limits assumed): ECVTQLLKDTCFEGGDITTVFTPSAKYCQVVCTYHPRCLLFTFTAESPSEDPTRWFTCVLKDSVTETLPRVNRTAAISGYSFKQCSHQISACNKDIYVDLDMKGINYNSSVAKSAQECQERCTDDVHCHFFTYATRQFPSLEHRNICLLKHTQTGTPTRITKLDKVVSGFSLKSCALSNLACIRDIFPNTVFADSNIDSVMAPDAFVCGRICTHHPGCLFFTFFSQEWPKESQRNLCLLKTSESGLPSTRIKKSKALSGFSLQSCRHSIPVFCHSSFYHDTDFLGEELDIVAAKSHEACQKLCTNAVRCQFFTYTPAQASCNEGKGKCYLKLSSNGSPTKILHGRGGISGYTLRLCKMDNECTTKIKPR
Sequence of Coagulation factor XI (Homo sapiens) (P03951 388-625 limits assumed): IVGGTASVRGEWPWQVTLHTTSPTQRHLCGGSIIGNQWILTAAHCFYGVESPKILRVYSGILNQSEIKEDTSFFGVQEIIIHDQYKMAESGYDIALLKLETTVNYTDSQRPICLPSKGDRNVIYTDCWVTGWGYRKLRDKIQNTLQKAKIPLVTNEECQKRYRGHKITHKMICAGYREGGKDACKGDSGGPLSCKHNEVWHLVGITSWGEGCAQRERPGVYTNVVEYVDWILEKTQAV

Sequence of Plasma kallikrein (P03952 20-390 limits assumed): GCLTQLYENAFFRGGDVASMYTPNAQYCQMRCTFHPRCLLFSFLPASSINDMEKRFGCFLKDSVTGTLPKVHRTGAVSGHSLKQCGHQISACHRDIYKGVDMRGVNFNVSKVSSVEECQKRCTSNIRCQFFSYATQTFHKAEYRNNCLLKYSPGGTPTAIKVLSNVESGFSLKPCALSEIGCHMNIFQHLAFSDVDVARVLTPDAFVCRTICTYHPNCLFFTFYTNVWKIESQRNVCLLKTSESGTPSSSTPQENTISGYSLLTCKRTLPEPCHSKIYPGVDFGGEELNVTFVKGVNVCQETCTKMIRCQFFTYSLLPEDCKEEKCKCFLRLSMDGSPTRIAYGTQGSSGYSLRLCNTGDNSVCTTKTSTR
Sequence of Plasma kallikrein (P03952 391-638 limits assumed): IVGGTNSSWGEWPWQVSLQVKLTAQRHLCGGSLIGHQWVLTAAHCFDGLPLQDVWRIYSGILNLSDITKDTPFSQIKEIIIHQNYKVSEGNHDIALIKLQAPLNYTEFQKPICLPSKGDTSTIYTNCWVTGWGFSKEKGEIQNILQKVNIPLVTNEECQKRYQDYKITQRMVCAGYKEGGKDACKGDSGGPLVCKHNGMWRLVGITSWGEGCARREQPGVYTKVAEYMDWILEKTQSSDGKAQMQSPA
Sequence of Plasma kallikrein (Mus musculus) (P26262 20-390 limits assumed): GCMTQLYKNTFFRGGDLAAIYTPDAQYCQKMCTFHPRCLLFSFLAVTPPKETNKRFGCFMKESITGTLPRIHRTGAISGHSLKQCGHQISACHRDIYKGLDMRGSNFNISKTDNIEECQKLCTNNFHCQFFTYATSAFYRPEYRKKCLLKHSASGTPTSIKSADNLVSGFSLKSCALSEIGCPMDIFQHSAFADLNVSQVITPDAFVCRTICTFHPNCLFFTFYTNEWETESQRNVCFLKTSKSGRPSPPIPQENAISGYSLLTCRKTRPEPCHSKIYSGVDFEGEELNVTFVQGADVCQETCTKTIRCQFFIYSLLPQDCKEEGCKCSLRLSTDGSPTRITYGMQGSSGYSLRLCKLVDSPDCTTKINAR
Sequence of Plasma kallikrein (Mus musculus) (P26262 391-638 limits assumed): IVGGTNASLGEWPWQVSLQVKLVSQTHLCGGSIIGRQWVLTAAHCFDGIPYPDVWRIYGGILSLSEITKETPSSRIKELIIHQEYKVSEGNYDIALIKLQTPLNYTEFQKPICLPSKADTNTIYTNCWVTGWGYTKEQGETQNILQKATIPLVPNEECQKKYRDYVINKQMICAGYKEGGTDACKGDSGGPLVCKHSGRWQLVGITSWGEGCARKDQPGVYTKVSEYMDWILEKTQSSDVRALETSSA

| Structure (SMILES) | IC50 (Plasma kallikrein) [µM] | inhibition [1] | inhibition [2] | inhibition [3] |
| --- | --- | --- | --- | --- |
| CC(C)[C@H](NC(=O)[C@H](CCCN=C(N)N)NC(=O)[C@H](CS)NC(=O)[C@H](CCCN=C(N)N)NC(=O)CNC(=O)[C@H](CCC(=O)O)NC(=O)CNC(=O)[C@@H](NC(=O)CNC(=O)[C@H](CS)NC(=O)[C@H](C)N)[C@@H](C)O)C(=O)N[C@@H](CC(N)=O)C(=O)N[C@@H](Cc1c[nH]c2ccccc12)C(=O)N[C@H](C(=O)N1CCC[C@H]1C(=O)N[C@@H](CS)C(=O)NCC(N)=O)[C@@H](C)O | > 10 |  |  |  |
| CC(C)[C@@H]1NC(=O)[C@H](CCCNC(=N)N)NC(=O)[C@@H]2CSCc3cc(cc(c3)CSC[C@@H](C(=O)NCC(N)=O)NC(=O)[C@@H]3CCCN3C(=O)[C@H]([C@H](C)O)NC(=O)[C@H](Cc3c[nH]c4ccccc34)NC(=O)[C@H](CC(N)=O)NC1=O)CSC[C@H](NC(=O)[C@H](C)N)C(=O)NCC(=O)N[C@@H]([C@H](C)O)C(=O)NCC(=O)N[C@@H](CCC(=O)O)C(=O)NCC(=O)N[C@@H](CCCNC(=N)N)C(=O)N2 | 0.0391 |  |  |  |
| CC(C)[C@H](NC(=O)[C@H](CCCNC(=N)N)NC(=O)[C@H](CS)NC(=O)[C@H](CCCNC(=N)N)NC(=O)CNC(=O)[C@H](CCC(=O)O)NC(=O)CNC(=O)[C@@H](NC(=O)CNC(=O)[C@H](CS)NC(=O)[C@@H](C)N)[C@H](C)O)C(=O)N[C@@H](CC(N)=O)C(=O)N[C@@H](Cc1c[nH]c2ccccc12)C(=O)N[C@H](C(=O)N1CCC[C@H]1C(=O)N[C@@H](CS)C(=O)NCC(N)=O)[C@@H](C)O |  | inactive | inactive | inactive |
| CSCC[C@H](NC(=O)[C@H](CC(C)C)NC(=O)[C@H](CC(=O)O)NC(=O)[C@H](CCC(=O)O)NC(=O)[C@H](Cc1ccc(O)cc1)NC(=O)[C@H](CS)NC(=O)[C@H](C)NC(=O)[C@@H](NC(=O)[C@H](CCCN=C(N)N)NC(=O)[C@H](Cc1c[nH]c2ccccc12)NC(=O)[C@@H]1CCCN1C(=O)[C@H](C)NC(=O)[C@H](CS)NC(=O)[C@H](C)N)[C@@H](C)O)C(=O)N[C@@H](Cc1c[nH]c2ccccc12)C(=O)N[C@@H](CS)C(=O)NCC(N)=O (H-ACAPWRTACYEDLMWCG-NH2) | 5.71 |  |  |  |
| CSCC[C@H](NC(=O)[C@H](CC(C)C)NC(=O)[C@H](CC(=O)O)NC(=O)[C@H](CCC(=O)O)NC(=O)[C@H](Cc1ccc(O)cc1)NC(=O)[C@H](CS)NC(=O)[C@H](C)NC(=O)[C@@H](NC(=O)[C@H](CCCNC(=N)N)NC(=O)[C@H](Cc1c[nH]c2ccccc12)NC(=O)[C@@H]1CCCN1C(=O)[C@H](C)NC(=O)[C@H](CS)NC(=O)[C@H](C)N)[C@@H](C)O)C(=O)N[C@@H](Cc1c[nH]c2ccccc12)C(=O)N[C@@H](CS)C(=O)NCC(N)=O (H-ACAPWRTACYEDLMWCG-NH2) |  | inactive | inactive | inactive |
| CC(C)C[C@H](NC(=O)[C@H](C)NC(=O)[C@H](CCC(=O)O)NC(=O)[C@H](CC(=O)O)NC(=O)[C@H](C)NC(=O)[C@@H]1CCCN1C(=O)[C@H](CS)NC(=O)[C@H](CC(N)=O)NC(=O)[C@H](CCCNC(=N)N)NC(=O)[C@H](Cc1ccccc1)NC(=O)[C@H](CCCNC(=N)N)NC(=O)[C@H](CC(=O)O)NC(=O)[C@H](CO)NC(=O)[C@H](CS)NC(=O)[C@H](C)N)C(=O)N[C@@H](CS)C(=O)NCC(N)=O (H-ACSDRFRNCPADEALCG-NH2) | > 10 | inactive | inactive | inactive |
| CC(C)C[C@H](NC(=O)[C@@H]1CCCN1C(=O)[C@H](CS)NC(=O)[C@H](CC(N)=O)NC(=O)[C@H](CCCNC(=N)N)NC(=O)[C@H](Cc1ccccc1)NC(=O)[C@H](CCCNC(=N)N)NC(=O)[C@H](CC(=O)O)NC(=O)[C@H](CO)NC(=O)[C@H](CS)NC(=O)[C@H](C)N)C(=O)N[C@@H](Cc1c[nH]c2ccccc12)C(=O)N[C@@H](CO)C(=O)NCC(=O)N[C@H](C(=O)N[C@@H](CS)C(=O)NCC(N)=O)[C@@H](C)O (H-ACSDRFRNCPLWSGTCG-NH2) | > 10 | inactive | inactive | inactive |
| CC(C)[C@@H]1NC(=O)[C@H](CCCNC(=N)N)NC(=O)[C@@H]2CSCc3cc(cc(c3)CSC[C@@H](C(=O)NCC(N)=O)NC(=O)[C@H](CCCCN)NC(=O)CNC(=O)[C@H](Cc3ccccc3)NC(=O)[C@H](CC(N)=O)NC1=O)CSC[C@H](NC(=O)[C@H](C)N)C(=O)N[C@@H](Cc1c[nH]c3ccccc13)C(=O)N[C@@H](CCC(N)=O)C(=O)N[C@@H](C(C)C)C(=O)N[C@@H](CCC(N)=O)C(=O)N[C@@H](C(C)C)C(=O)N[C@@H](CC(N)=O)C(=O)N2 (H-ACWQVQVNCRVNFGKCG-NH2; linker 2-9-16 via TBMB) | 0.8 |  |  |  |

Further lines, results first:

| IC50 (Plasma kallikrein) [µM] | inhibition [1] | inhibition [2] | inhibition [3] | Structure (SMILES) |
| --- | --- | --- | --- | --- |
| 0.033 |  |  |  | CC[C@H](C)[C@@H]1NC(=O)[C@H](CCC(=O)O)NC(=O)[C@H]([C@@H](C)CC)NC(=O)[C@@H]2CCCN2C(=O)[C@@H]2CSCc3cc(cc(c3)CSC[C@@H](C(=O)NCC(N)=O)NC(=O)[C@@H]3CCCN3C(=O)[C@H](Cc3ccccc3)NC1=O)CSC[C@H](NC(=O)[C@H](C)N)C(=O)N[C@@H](CO)C(=O)N[C@@H]([C@H](C)O)C(=O)N[C@@H](CCC(=O)O)C(=O)N[C@@H](CCCNC(=N)N)C(=O)N[C@@H](CCCNC(=N)N)C(=O)N[C@@H](Cc1ccc(O)cc1)C(=O)N2 |
| 1.5 |  |  |  | CSCC[C@@H]1NC(=O)[C@H](CO)NC(=O)[C@H](Cc2c[nH]c3ccccc23)NC(=O)[C@@H]2CCCN2C(=O)[C@@H]2CSCc3cc(cc(c3)CSC[C@H](NC(=O)[C@H](C)N)C(=O)N[C@@H](CC(=O)O)C(=O)N[C@@H](CO)C(=O)N[C@@H](CCCNC(=N)N)C(=O)N[C@@H](Cc3ccccc3)C(=O)N[C@@H](CCCNC(=N)N)C(=O)N[C@@H](CC(N)=O)C(=O)N2)CSC[C@@H](C(=O)NCC(N)=O)NC(=O)CNC(=O)[C@H](CO)NC1=O (H-ACDSRFRNCPWSMSGCG-NH2; linker 2-9-16 via TBMB) |
| 2 |  |  |  | CC[C@H](C)[C@@H]1NC(=O)[C@H](CC(N)=O)NC(=O)[C@H](CC(N)=O)NC(=O)[C@H](C(C)C)NC(=O)[C@H](CCCNC(=N)N)NC(=O)[C@@H]2CSCc3cc(cc(c3)CSC[C@@H](C(=O)NCC(N)=O)NC(=O)[C@H](CO)NC1=O)CSC[C@H](NC(=O)[C@H](C)N)C(=O)NCC(=O)NCC(=O)N[C@@H](CC(N)=O)C(=O)N[C@@H](CO)C(=O)N[C@@H](CC(=O)O)C(=O)N[C@@H](CCCNC(=N)N)C(=O)N2 (H-ACGGNSDRCRVNNISCG-NH2; linker 2-9-16 via TBMB) |
| 0.02 |  |  |  | CC(C)C[C@@H]1NC(=O)[C@H](C)NC(=O)[C@H](CCC(=O)O)NC(=O)[C@H](CC(=O)O)NC(=O)[C@H](C(C)C)NC(=O)[C@@H]2CCCN2C(=O)[C@@H]2CSCc3cc(cc(c3)CSC[C@@H](C(=O)NCC(N)=O)NC1=O)CSC[C@H](NC(=O)[C@H](C)N)C(=O)N[C@@H](CO)C(=O)N[C@@H](CC(=O)O)C(=O)N[C@@H](CCCNC(=N)N)C(=O)N[C@@H](Cc1ccccc1)C(=O)N[C@@H](CCCNC(=N)N)C(=O)N[C@@H](CC(N)=O)C(=O)N2 (H-ACSDRFRNCPVDEALCG-NH2; linker 2-9-16 via TBMB) |
| 0.03 |  |  |  | CC(C)C[C@@H]1NC(=O)[C@H](Cc2c[nH]c3ccccc23)NC(=O)[C@H](CCC(=O)O)NC(=O)[C@H](CC(=O)O)NC(=O)[C@H](C(C)C)NC(=O)[C@@H]2CCCN2C(=O)[C@@H]2CSCc3cc(cc(c3)CSC[C@@H](C(=O)NCC(N)=O)NC1=O)CSC[C@H](NC(=O)[C@H](C)N)C(=O)N[C@@H](CO)C(=O)N[C@@H](CC(=O)O)C(=O)N[C@@H](CCCNC(=N)N)C(=O)N[C@@H](Cc1ccccc1)C(=O)N[C@@H](CCCNC(=N)N)C(=O)N[C@@H](CC(N)=O)C(=O)N2 (H-ACSDRFRNCPVDEWLCG-NH2; linker 2-9-16 via TBMB) |
| 0.05 |  |  |  | CC(C)[C@@H]1NC(=O)[C@@H]2CCCN2C(=O)[C@@H]2CSCc3cc(cc(c3)CSC[C@@H](C(=O)NCC(N)=O)NC(=O)[C@H](C)NC(=O)[C@H](CO)NC(=O)[C@H](CCC(=O)O)NC(=O)[C@H](CO)NC1=O)CSC[C@H](NC(=O)[C@H](C)N)C(=O)N[C@@H](CO)C(=O)N[C@@H](CC(=O)O)C(=O)N[C@@H](CCCNC(=N)N)C(=O)N[C@@H](Cc1ccccc1)C(=O)N[C@@H](CCCNC(=N)N)C(=O)N[C@@H](CC(N)=O)C(=O)N2 (H-ACSDRFRNCPVSESACG-NH2; linker 2-9-16 via TBMB) |
| 0.03 |  |  |  | CC(C)C[C@@H]1NC(=O)[C@H]([C@@H](C)O)NC(=O)[C@H](Cc2ccc(O)cc2)NC(=O)[C@@H]2CCCN2C(=O)[C@@H]2CSCc3cc(cc(c3)CSC[C@@H](C(=O)NCC(N)=O)NC(=O)[C@H](CC(=O)O)NC(=O)[C@H](Cc3cnc[nH]3)NC1=O)CSC[C@H](NC(=O)[C@H](C)N)C(=O)N[C@@H](CO)C(=O)N[C@@H](CC(=O)O)C(=O)N[C@@H](CCCNC(=N)N)C(=O)N[C@@H](Cc1ccccc1)C(=O)N[C@@H](CCCNC(=N)N)C(=O)N[C@@H](CC(N)=O)C(=O)N2 (H-ACSDRFRNCPYTLHDCG-NH2; linker 2-9-16 via TBMB) |
| 0.0286 |  |  |  | CC(C)C[C@@H]1NC(=O)[C@@H]2CCCN2C(=O)[C@@H]2CSCc3cc(cc(c3)CSC[C@@H](C(=O)NCC(N)=O)NC(=O)[C@H](C(C)O)NC(=O)CNC(=O)[C@H](CO)NC(=O)[C@H](Cc3c[nH]c4ccccc34)NC1=O)CSC[C@H](NC(=O)[C@H](C)N)C(=O)N[C@@H](CO)C(=O)N[C@@H](CC(=O)O)C(=O)N[C@@H](CCCNC(=N)N)C(=O)N[C@@H](Cc1ccccc1)C(=O)N[C@@H](CCCNC(=N)N)C(=O)N[C@@H](CC(N)=O)C(=O)N2 (single isomer, unassigned) |
| 1.8 |  |  |  | CC(C)[C@@H]1NC(=O)[C@@H](NC(=O)[C@H](C)N)CSCc2cc3cc(c2)CSC[C@@H](C(=O)NCC(N)=O)NC(=O)[C@H](C(C)O)NC(=O)[C@H](C(C)C)NC(=O)[C@H](Cc2c[nH]c4ccccc24)NC(=O)[C@H](CC(N)=O)NC(=O)[C@H](C(C)C)NC(=O)[C@H](CCCNC(=N)N)NC(=O)[C@H](CSC3)NC(=O)[C@H](Cc2ccc(O)cc2)NC(=O)[C@H](CC(N)=O)NC(=O)[C@H](Cc2cnc[nH]2)NC1=O (single isomer, unassigned) |
